Source: patent US20060128614A1, “Antimicrobial peptides with reduced hemolysis and methods of their use” (priority 2002, published 2006)
≈ marks a conversion by molar mass, not a printed value. Like-named read-outs stand apart in the source and are kept apart here. Non-standard residues stand in square brackets, D forms with d. Residues, ends and D or L forms follow the SMILES beside them. Bip = N[C@@H](Cc1ccc(-c2ccccc2)cc1)C(=O)O; 2Nal = N[C@@H](Cc1ccc2ccccc2c1)C(=O)O

What was measured:
E. coli = format: cell-based, Escherichia coli
Description: (§1) The in vitro antimicrobial activities of antimicrobial agents were tested using standard NCCLS bacterial and fungi inhibition assays or minimum inhibition concentration (MIC) tests. The MIC value is the lowest concentration of peptide at which the visible growth of test organisms was inhibited and reduced. Overnight cultures of the test organisms were diluted to produce an inoculum containing approximately […] in Meuller-Hinton broth (MHB). From the peptide stock solution, serial dilutions of the peptides into […] were prepared and all wells of a 96-well microtiter plate were subsequently inoculated with the diluted culture of the test organisms. After 18 hours of incubation at 37°, the results were assayed for turbidity as an indicator of cell growth. MIC values for the peptides are shown in Table 3 and Table 4 and FIGS. 1(A), 1(B), 1 (C) and 1 (D) show survival rates for Pac-625 and Pac-626.

S. aureus = format: cell-based, Staphylococcus aureus
Description: as §1

[1] = system: outer membrane of E. coli; assay: NPN uptake assay, outer membrane permeabilization; format: cell-based; conditions: intact cells of E. coli
Description: The outer membrane permeabilization activity of the peptide variants was determined by the 1-N-phenylnaphthylamine (NPN) uptake assay, using intact cells of E. coli. […] Since NPN is hydrophobic, it provides a direct measurement of the degree of outer membrane permeability. E. coli take up little or no NPN in a general condition. In the presence of permeabilizer compounds (EDTA, polymyxin B, Neomycin, or antimicrobial peptides), NPN partitioned into the bacterial outer membrane results in an increase in fluorescence. Fluorescence will vary with the concentration of peptide.
One ml of overnight culture was used to inoculate 50 ml of media and incubated at 37° C. with shaking. The culture was permitted to grow to an OD600 of 0.4 to 0.6, cells were spun down at 3500 rpm for 10 minutes, washed, and re-suspended in buffer to an OD600 of 0.5. The OD600 was recorded, 1 ml of cells (OD600=0.5) was added to the cuvette and measured after 2-5 seconds. 20 μl NPN 0.5 mM, shaken to mix, was added and measured after 2-5 seconds. 10 ul antibiotic 100× desired final concentration was added, shaken to mix, and measured until the maximal value was reached within 1 to 5 minutes. The concentration of peptide leading to 50% of the maximum increase in NPN uptake was recorded as the P50.

[2] = qualitative statement
[3] = system: Gram-positive and Gram-negative bacteria; assay: Antimicrobial activity of Trp template peptides; format: cell-based; conditions: qualitative statement
B. subtilis = format: cell-based, Bacillus subtilis
Description: as §1

S. epidermidis = format: cell-based, Staphylococcus epidermidis
Description: as §1

Candida albicans = format: cell-based
Description: as §1

[4] = system: human red blood cells (RBC); format: cell-based
Description: Pac-401, Pac-403, Pac-625 and Pac-626 were tested for hemolysis against human red blood cells (RBC). The RBCs with EDTA were rinsed 3 times with PBS (800 g, 10 min) and re-suspended in PBS. The RBCs were diluted into 10% with phosphate-buffered saline and placed […] into each eppendorf. The peptides dissolved in PBS were then added to 50 μl of 10% solution of RBCs and incubated for an hour at 37° C. (final RBC concentration, 5% v/v). The samples were centrifuged at 800 g for 10 min […]. Various concentrations of peptides were incubated with pretreated RBC and the percentage of hemolysis determined.

B. cereus = format: cell-based, Bacillus cereus
Description: as §1

Compound | MIC against E. coli (E. coli) [µg/mL] | MIC against E. coli (E. coli; 18 h) [µg/mL] | MIC against S. aureus (S. aureus) [µg/mL] | MIC against S. aureus (S. aureus; 18 h) [µg/mL] | P50 (concentration of peptide leading to 50% of the maximum increase in NPN uptake) [1] [µg/mL] | hemolytic activity [2] | antimicrobial activity [3] | MIC B. subtilis (B. subtilis) [µg/mL] | MIC S. epidermidis (S. epidermidis) [µg/mL] | MIC Candida albicans (Candida albicans) [µg/mL] | % lysis @ 5 μg/ml [4] [%] | % lysis @ 50 μg/ml [4] [%] | % lysis @ 500 μg/ml [4] [%] | MIC S. aureus (S. aureus) [µg/mL] | MIC B. cereus (B. cereus) [µg/mL]
CC[C@H](C)[C@H](NC(=O)[C@H](Cc1ccc(-c2ccccc2)cc1)NC(=O)[C@H](CCCNC(=N)N)NC(=O)[C@@H](NC(=O)[C@H](Cc1ccc(-c2ccccc2)cc1)NC(=O)[C@H](CCCNC(=N)N)NC(=O)[C@H](CCCNC(=N)N)NC(=O)[C@H](Cc1ccc(-c2ccccc2)cc1)NC(=O)[C@H](CCCCN)NC(C)=O)C(C)C)C(N)=O [Pac-628 L, K (Bip) R R (Bip) V R (Bip) I] (Ac-K[Bip]RR[Bip]VR[Bip]I-NH2) | 2 (≈ 1.3 µM) | 2 (≈ 1.3 µM) | 4 (≈ 2.6 µM) | 4 (≈ 2.6 µM) | 4 | – | – | – | – | – | – | – | – | – | –
CC(=O)N[C@@H](CCCCN)C(=O)N[C@@H](Cc1ccc2ccccc2c1)C(=O)N[C@@H](CCCNC(=N)N)C(=O)N[C@@H](CCCNC(=N)N)C(=O)N[C@@H](Cc1ccc2ccccc2c1)C(=O)N[C@H](C(N)=O)C(C)C [Pac-402 L, K (2-Nal) R R (2-Nal) V] (Ac-K[2Nal]RR[2Nal]V-NH2; N-terminus and C-terminus assumed) | – | 24 (≈ 24.2 µM) | – | 16 (≈ 16.1 µM) | 16 | – | – | – | – | – | – | – | – | – | –
CC[C@H](C)[C@H](NC(C)=O)C(=O)N[C@@H](Cc1c[nH]c2ccccc12)C(=O)N[C@@H](CCCNC(=N)N)C(=O)N[C@H](C(=O)N[C@@H](Cc1c[nH]c2ccccc12)C(=O)N[C@@H](CCCNC(=N)N)C(=O)N[C@@H](CCCNC(=N)N)C(=O)N[C@@H](Cc1c[nH]c2ccccc12)C(=O)N[C@@H](CCCCN)C(N)=O)C(C)C [Pac-525rev, Ac-IWRVWRRWK-NH2] (Ac-IWRVWRRWK-NH2) | – | – | – | – | – | very similar to that of Pac-525 | – | – | – | – | – | – | – | – | –
CC[C@H](C)[C@H](NC(=O)[C@H](Cc1c[nH]c2ccccc12)NC(=O)[C@H](CCCNC(=N)N)NC(=O)[C@@H](NC(=O)[C@H](Cc1c[nH]c2ccccc12)NC(=O)[C@H](CCCNC(=N)N)NC(=O)[C@H](CCCNC(=N)N)NC(=O)[C@H](Cc1c[nH]c2ccccc12)NC(=O)[C@H](CCCCN)NC(C)=O)C(C)C)C(N)=O [Pac-525, Ac-KWRRWVRW1-NH2] (Ac-KWRRWVRWI-NH2) | – | – | – | – | – | reduced hemolytic activity | improved activity against both Gram-positive and Gram-negative bacteria | – | – | – | – | – | – | – | –
CC[C@H](C)[C@H](NC(=O)[C@H](Cc1ccc2ccccc2c1)NC(=O)[C@H](CCCNC(=N)N)NC(=O)[C@@H](NC(=O)[C@H](Cc1ccc2ccccc2c1)NC(=O)[C@H](CCCNC(=N)N)NC(=O)[C@H](CCCNC(=N)N)NC(=O)[C@H](Cc1ccc2ccccc2c1)NC(=O)[C@H](CCCCN)NC(C)=O)C(C)C)C(N)=O [Pac-625 L, K (2-Nal) R R (2-Nal) V R (2-Nal) I] (Ac-K[2Nal]RR[2Nal]VR[2Nal]I-NH2) | 2 (≈ 1.37 µM) | 2 (≈ 1.37 µM) | 4 (≈ 2.74 µM) | 4 (≈ 2.74 µM) | 2 | – | – | 4 (≈ 2.74 µM) | 2 (≈ 1.37 µM) | 16 (≈ 11 µM) | 0.82 | 7.3 | 15 | – | –
CC[C@H](C)[C@H](NC(C)=O)C(=O)N[C@@H](Cc1ccc2ccccc2c1)C(=O)N[C@@H](CCCNC(=N)N)C(=O)N[C@H](C(=O)N[C@@H](Cc1ccc2ccccc2c1)C(=O)N[C@@H](CCCNC(=N)N)C(=O)N[C@@H](CCCNC(=N)N)C(=O)N[C@@H](Cc1ccc2ccccc2c1)C(=O)N[C@@H](CCCCN)C(N)=O)C(C)C [Pac-626 L, I (2-Nal) R V (2-Nal) R R (2-Nal) K] (Ac-I[2Nal]RV[2Nal]RR[2Nal]K-NH2) | 4 (≈ 2.74 µM) | 4 (≈ 2.74 µM) | 4 (≈ 2.74 µM) | 4 (≈ 2.74 µM) | 2 | – | – | – | – | 32 (≈ 21.9 µM) | 0.81 | 7.2 | 14 | 4 (≈ 2.74 µM) | 4 (≈ 2.74 µM)
